Source: the NIST ThermoML archive (doi:10.1021/je060271a)
Numbers after ± are expanded uncertainties.

Conditions: 283.15 K, Liquid, Vibrating tube method

Measured: mass density

CCCCCC(=O)OCC(COC(=O)CCCCC)(COC(=O)CCCCC)COC(=O)CCCCC [pentaerythritol tetrahexanoate]
1011.5 ± 1.2 kg/m3: 12961 kPa | 12978 kPa | 13095 kPa
1011.6 ± 1.2 kg/m3: 12991 kPa | 13005 kPa | 13019 kPa | 13036 kPa | 13081 kPa | 13109 kPa
1012.9 ± 1.2 kg/m3: 15175 kPa | 15190 kPa
1012.2 ± 1.2 kg/m3: 13949 kPa | 13996 kPa | 14027 kPa | 14058 kPa | 14087 kPa | 14104 kPa | 14133 kPa | 14196 kPa | 14211 kPa | 14225 kPa | 14368 kPa
1012.4 ± 1.2 kg/m3: 14320 kPa | 14335 kPa | 14382 kPa | 14397 kPa | 14448 kPa | 14496 kPa | 14511 kPa | 14527 kPa | 14560 kPa | 14575 kPa | 14591 kPa | 14640 kPa | 14689 kPa | 14708 kPa
1011.8 ± 1.2 kg/m3: 13202 kPa | 13262 kPa | 13308 kPa | 13340 kPa | 13355 kPa | 13372 kPa | 13401 kPa | 13434 kPa | 13448 kPa | 13466 kPa | 13514 kPa | 13625 kPa | 13716 kPa
1012.5 ± 1.2 kg/m3: 14542 kPa | 14624 kPa | 14658 kPa | 14674 kPa | 14724 kPa | 14739 kPa | 14755 kPa | 14774 kPa
1012.7 ± 1.2 kg/m3: 14840 kPa | 14856 kPa | 14891 kPa | 14907 kPa | 14926 kPa | 14974 kPa | 14993 kPa | 15042 kPa | 15074 kPa | 15159 kPa
1012 ± 1.2 kg/m3: 13419 kPa | 13481 kPa | 13544 kPa | 13559 kPa | 13640 kPa | 13669 kPa | 13702 kPa | 13735 kPa | 13855 kPa | 13906 kPa
1012.1 ± 1.2 kg/m3: 13655 kPa | 13687 kPa | 13782 kPa | 13797 kPa | 13810 kPa | 13827 kPa | 13870 kPa | 13883 kPa | 13894 kPa | 13920 kPa | 13966 kPa | 13981 kPa | 14013 kPa | 14042 kPa | 14118 kPa | 14150 kPa | 14243 kPa
1012.6 ± 1.2 kg/m3: 14415 kPa | 14609 kPa | 14790 kPa | 14805 kPa | 14824 kPa | 14875 kPa | 14942 kPa | 15008 kPa
1011.9 ± 1.2 kg/m3: 13276 kPa | 13386 kPa | 13496 kPa | 13529 kPa | 13577 kPa | 13592 kPa | 13607 kPa | 13750 kPa | 13765 kPa | 13842 kPa
1011.4 ± 1.2 kg/m3: 13064 kPa
1012.8 ± 1.2 kg/m3: 14959 kPa | 15024 kPa | 15058 kPa | 15090 kPa | 15108 kPa | 15124 kPa | 15140 kPa | 15209 kPa
1012.3 ± 1.2 kg/m3: 13934 kPa | 14073 kPa | 14164 kPa | 14179 kPa | 14257 kPa | 14272 kPa | 14289 kPa | 14304 kPa | 14350 kPa | 14430 kPa | 14463 kPa | 14478 kPa
1011.7 ± 1.2 kg/m3: 12947 kPa | 13050 kPa | 13126 kPa | 13139 kPa | 13156 kPa | 13170 kPa | 13185 kPa | 13216 kPa | 13233 kPa | 13247 kPa | 13293 kPa | 13322 kPa
